Tested on: Mitochondria-located protein genes
Assay: DNA chip mRNA expression in yeast, mitochondria-located protein genes (Table 2)
Type: cell-based, Saccharomyces cerevisiae S288C
Settings: cells incubated two hours with the chemical substance
How it was run: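 S. cerevisiae S288C grown at 25° C. in YPD to log phase, then exposed 2 h to a toxicant at a growth-inhibiting, non-lethal concentration; untreated cells as control. Poly(A) mRNA reverse-transcribed with Cy3-dUTP or Cy5-dUTP, hybridized >12 h at 65° C. to whole-genome yeast DNA chip; value = fluorescence ratio treated/untreated.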

O=[N+]([O-])c1cc[n+]([O-])c2ccccc12 [(5), 4-nitroquinolin-N-oxide]
The level of expressed mRNA in the presence of chemical substance/The level of expressed mRNA in the absence of chemical substance (yeast gene YJR121W): 0.8
The level of expressed mRNA in the presence of chemical substance/The level of expressed mRNA in the absence of chemical substance (yeast gene YKL003C): 1.0
The level of expressed mRNA in the presence of chemical substance/The level of expressed mRNA in the absence of chemical substance (yeast gene YKL016C): 1.5
The level of expressed mRNA in the presence of chemical substance/The level of expressed mRNA in the absence of chemical substance (yeast gene YKL141W): 1.5
The level of expressed mRNA in the presence of chemical substance/The level of expressed mRNA in the absence of chemical substance (yeast gene YKL142W): 0.7
The level of expressed mRNA in the presence of chemical substance/The level of expressed mRNA in the absence of chemical substance (yeast gene YKL148C): 0.8
The level of expressed mRNA in the presence of chemical substance/The level of expressed mRNA in the absence of chemical substance (yeast gene YKL170W): 1.3
The level of expressed mRNA in the presence of chemical substance/The level of expressed mRNA in the absence of chemical substance (yeast gene YKL194C): 1.8
The level of expressed mRNA in the presence of chemical substance/The level of expressed mRNA in the absence of chemical substance (yeast gene YKR066C): 1.0
The level of expressed mRNA in the presence of chemical substance/The level of expressed mRNA in the absence of chemical substance (yeast gene YLL041C): 1.6
The level of expressed mRNA in the presence of chemical substance/The level of expressed mRNA in the absence of chemical substance (yeast gene YLR038C): 1.8
The level of expressed mRNA in the presence of chemical substance/The level of expressed mRNA in the absence of chemical substance (yeast gene YLR259C): 1.1
The level of expressed mRNA in the presence of chemical substance/The level of expressed mRNA in the absence of chemical substance (yeast gene YLR295C): 2.2
The level of expressed mRNA in the presence of chemical substance/The level of expressed mRNA in the absence of chemical substance (yeast gene YLR304C): 0.6
The level of expressed mRNA in the presence of chemical substance/The level of expressed mRNA in the absence of chemical substance (yeast gene YLR348C): 0.9
The level of expressed mRNA in the presence of chemical substance/The level of expressed mRNA in the absence of chemical substance (yeast gene YLR395C): 0.7
The level of expressed mRNA in the presence of chemical substance/The level of expressed mRNA in the absence of chemical substance (yeast gene YML054C): 1.3
The level of expressed mRNA in the presence of chemical substance/The level of expressed mRNA in the absence of chemical substance (yeast gene YML120C): 0.6
The level of expressed mRNA in the presence of chemical substance/The level of expressed mRNA in the absence of chemical substance (yeast gene YML129C): 1.7
The level of expressed mRNA in the presence of chemical substance/The level of expressed mRNA in the absence of chemical substance (yeast gene YMR023C): 1.7
The level of expressed mRNA in the presence of chemical substance/The level of expressed mRNA in the absence of chemical substance (yeast gene YMR035W): 0.8
The level of expressed mRNA in the presence of chemical substance/The level of expressed mRNA in the absence of chemical substance (yeast gene YMR083W): 1.5
The level of expressed mRNA in the presence of chemical substance/The level of expressed mRNA in the absence of chemical substance (yeast gene YMR089C): 0.8
The level of expressed mRNA in the presence of chemical substance/The level of expressed mRNA in the absence of chemical substance (yeast gene YMR152W): 0.8
The level of expressed mRNA in the presence of chemical substance/The level of expressed mRNA in the absence of chemical substance (yeast gene YMR193W): 2.2
The level of expressed mRNA in the presence of chemical substance/The level of expressed mRNA in the absence of chemical substance (yeast gene YMR203W): 0.6
The level of expressed mRNA in the presence of chemical substance/The level of expressed mRNA in the absence of chemical substance (yeast gene YMR267W): 1.0
The level of expressed mRNA in the presence of chemical substance/The level of expressed mRNA in the absence of chemical substance (yeast gene YNL055C): 0.9
The level of expressed mRNA in the presence of chemical substance/The level of expressed mRNA in the absence of chemical substance (yeast gene YNL071W): 0.6
The level of expressed mRNA in the presence of chemical substance/The level of expressed mRNA in the absence of chemical substance (yeast gene YNL073W): 0.6
The level of expressed mRNA in the presence of chemical substance/The level of expressed mRNA in the absence of chemical substance (yeast gene YNL104C): 0.8
The level of expressed mRNA in the presence of chemical substance/The level of expressed mRNA in the absence of chemical substance (yeast gene YNL256W): 1.0
The level of expressed mRNA in the presence of chemical substance/The level of expressed mRNA in the absence of chemical substance (yeast gene YOL096C): 1.2
The level of expressed mRNA in the presence of chemical substance/The level of expressed mRNA in the absence of chemical substance (yeast gene YOR020C): 1.5
The level of expressed mRNA in the presence of chemical substance/The level of expressed mRNA in the absence of chemical substance (yeast gene YOR037W): 1.5
The level of expressed mRNA in the presence of chemical substance/The level of expressed mRNA in the absence of chemical substance (yeast gene YOR100C): 1.0
The level of expressed mRNA in the presence of chemical substance/The level of expressed mRNA in the absence of chemical substance (yeast gene YOR130C): 1.8
The level of expressed mRNA in the presence of chemical substance/The level of expressed mRNA in the absence of chemical substance (yeast gene YOR142W): 1.4
The level of expressed mRNA in the presence of chemical substance/The level of expressed mRNA in the absence of chemical substance (yeast gene YOR150W): 0.8
The level of expressed mRNA in the presence of chemical substance/The level of expressed mRNA in the absence of chemical substance (yeast gene YOR176W): 1.0
The level of expressed mRNA in the presence of chemical substance/The level of expressed mRNA in the absence of chemical substance (yeast gene YOR187W): 0.6
The level of expressed mRNA in the presence of chemical substance/The level of expressed mRNA in the absence of chemical substance (yeast gene YOR316C): 1.0
The level of expressed mRNA in the presence of chemical substance/The level of expressed mRNA in the absence of chemical substance (yeast gene YPL040C): 0.8
The level of expressed mRNA in the presence of chemical substance/The level of expressed mRNA in the absence of chemical substance (yeast gene YPL134C): 1.4
The level of expressed mRNA in the presence of chemical substance/The level of expressed mRNA in the absence of chemical substance (yeast gene YPL135W): 1.6
The level of expressed mRNA in the presence of chemical substance/The level of expressed mRNA in the absence of chemical substance (yeast gene YPL215W): 0.8
The level of expressed mRNA in the presence of chemical substance/The level of expressed mRNA in the absence of chemical substance (yeast gene YPL262W): 0.6
The level of expressed mRNA in the presence of chemical substance/The level of expressed mRNA in the absence of chemical substance (yeast gene YPR024W): 1.3
The level of expressed mRNA in the presence of chemical substance/The level of expressed mRNA in the absence of chemical substance (yeast gene YPR037C): 0.8
The level of expressed mRNA in the presence of chemical substance/The level of expressed mRNA in the absence of chemical substance (yeast gene YPR047W): 0.9
The level of expressed mRNA in the presence of chemical substance/The level of expressed mRNA in the absence of chemical substance (yeast gene YPR134W): 1.5
